# Source: PubChem BioAssay AID264 (DTP/NCI, 2004)
# Results filed as inconclusive are left out.
# Tested on: nude mice, LX-1 lung xenograft intrarenal, tumor weight T/C
# Assay: NCI In Vivo Anticancer Drug Screen. Data for tumor model Human Lung LX-1 Xenograft (intrarenal inoculation) in NU/NU Swiss (nude) mice
# Conditions: endpoint: mean tumor weight change, higher = larger tumour
# In short: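 Antitumor effect is expressed as a ratio: the mean tumor measurement of the drug-treated group relative to that of the vehicle-dosed control group.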
# [1] = dose: 150.0 mg/kg/injection, schedule: Q04DX003 (sc), vehicle: saline with Tween-80
# [2] = dose: 300.0 mg/kg/injection, schedule: Q04DX003 (sc), vehicle: saline with Tween-80
# [3] = dose: 600.0 mg/kg/injection, schedule: Q04DX003 (sc), vehicle: saline with Tween-80
# [4] = dose: 1200.0 mg/kg/injection, schedule: Q04DX003 (sc), vehicle: saline with Tween-80
smiles,measurement,setting,value
CCCN1COC(OCC)C(C)(C)C1 (stereo not drawn),T/C,[1],92 % of control
same,T/C,[2],90 % of control
same,T/C,[3],106 % of control
same,T/C,[4],107 % of control
OCC1OC(n2cnc3c(=S)nc[nH]c32)C(O)C1O (stereo not drawn),T/C,"dose: 100.0 mg/kg/injection, schedule: Q01DX010 (sc), vehicle: saline",86 % of control
same,T/C,"dose: 300.0 mg/kg/injection, schedule: Q04DX003 (sc), vehicle: saline",75 % of control
same,T/C,"dose: 600.0 mg/kg/injection, schedule: Q04DX003 (sc), vehicle: saline",99 % of control
same,T/C,"dose: 1200.0 mg/kg/injection, schedule: Q04DX003 (sc), vehicle: saline",124 % of control
same,T/C,"dose: 2400.0 mg/kg/injection, schedule: Q04DX003 (sc), vehicle: saline",65 % of control
CC(=O)ON(C(C)=O)c1ccc(C(N)=O)cc1,T/C,[1],110 % of control
same,T/C,[2],114 % of control
same,T/C,[3],100 % of control
same,T/C,[4],97 % of control
O=C(C#Cc1ccccc1)c1ccccc1,T/C,"dose: 18.75 mg/kg/injection, schedule: Q04DX003 (sc), vehicle: Klucel (hydroxypropylcellulose) (HPC)",87 % of control
same,T/C,"dose: 25.0 mg/kg/injection, schedule: Q04DX003 (sc), vehicle: Klucel (hydroxypropylcellulose) (HPC)",111 % of control
same,T/C,"dose: 37.5 mg/kg/injection, schedule: Q04DX003 (sc), vehicle: Klucel (hydroxypropylcellulose) (HPC)",96 % of control
same,T/C,"dose: 50.0 mg/kg/injection, schedule: Q04DX003 (sc), vehicle: Klucel (hydroxypropylcellulose) (HPC)",90 % of control
same,T/C,"dose: 75.0 mg/kg/injection, schedule: Q04DX003 (sc), vehicle: Klucel (hydroxypropylcellulose) (HPC)",105 % of control
same,T/C,"dose: 100.0 mg/kg/injection, schedule: Q04DX003 (sc), vehicle: Klucel (hydroxypropylcellulose) (HPC)",113 % of control
same,T/C,"dose: 150.0 mg/kg/injection, schedule: Q04DX003 (sc), vehicle: Klucel (hydroxypropylcellulose) (HPC)",65 % of control
same,T/C,"dose: 200.0 mg/kg/injection, schedule: Q04DX003 (sc), vehicle: Klucel (hydroxypropylcellulose) (HPC)",81 % of control
O=C(Nc1cccc(Cl)c1)ON1C(=O)C2C(C1=O)C1(Cl)C(Cl)C(Cl)C2(Cl)C1(Cl)Cl (stereo not drawn),T/C,[2],81 % of control
same,T/C,[3],85 % of control
same,T/C,[4],83 % of control
Clc1ccc(C(c2ccccc2Cl)C(Cl)Cl)cc1 (stereo not drawn),T/C,"dose: 400.0 mg/kg/injection, schedule: Q01DX010 (sc), vehicle: saline with Tween-80",80 % of control
same,T/C,"dose: 800.0 mg/kg/injection, schedule: Q01DX010 (sc), vehicle: saline with Tween-80",40 % of control
same,T/C,"dose: 800.0 mg/kg/injection, schedule: Q01DX010 (sc), vehicle: saline",69 % of control
same,T/C,"dose: 1600.0 mg/kg/injection, schedule: Q01DX010 (sc), vehicle: saline with Tween-80",56 % of control
same,T/C,"dose: 1600.0 mg/kg/injection, schedule: Q01DX010 (sc), vehicle: saline",55 % of control
same,T/C,"dose: 3200.0 mg/kg/injection, schedule: Q01DX010 (sc), vehicle: saline with Tween-80",24 % of control
same,T/C,"dose: 3200.0 mg/kg/injection, schedule: Q01DX010 (sc), vehicle: saline",80 % of control
same,T/C,"dose: 6400.0 mg/kg/injection, schedule: Q01DX010 (sc), vehicle: saline",73 % of control
O=C1C(O)=C(c2ccccc2)C(=O)C(O)=C1c1ccccc1,T/C,"dose: 75.0 mg/kg/injection, schedule: Q04DX003 (sc), vehicle: saline",80 % of control
same,T/C,"dose: 150.0 mg/kg/injection, schedule: Q04DX003 (sc), vehicle: saline",71 % of control
COc1ccc(C(=O)C(CN(C)C)CN(C)C)cc1,T/C,"dose: 12.5 mg/kg/injection, schedule: Q04DX003 (sc), vehicle: saline",68 % of control
same,T/C,"dose: 25.0 mg/kg/injection, schedule: Q04DX003 (sc), vehicle: saline",113 % of control
same,T/C,"dose: 50.0 mg/kg/injection, schedule: Q04DX003 (sc), vehicle: saline",64 % of control
O=c1[nH]cnc2[nH]ncc12,T/C,"dose: 150.0 mg/kg/injection, schedule: Q04DX003 (sc), vehicle: suspension in saline",88 % of control
same,T/C,"dose: 300.0 mg/kg/injection, schedule: Q04DX003 (sc), vehicle: suspension in saline",100 % of control
same,T/C,"dose: 600.0 mg/kg/injection, schedule: Q04DX003 (sc), vehicle: suspension in saline",61 % of control
O=[N+]([O-])/C=C\c1ccc2c(c1)OCO2,T/C,"dose: 12.5 mg/kg/injection, schedule: Q01DX010 (sc), vehicle: Klucel (hydroxypropylcellulose) (HPC)",71 % of control
same,T/C,"dose: 25.0 mg/kg/injection, schedule: Q01DX010 (sc), vehicle: Klucel (hydroxypropylcellulose) (HPC)",94 % of control
same,T/C,"dose: 800.0 mg/kg/injection, schedule: Q01DX010 (sc), vehicle: Klucel (hydroxypropylcellulose) (HPC)",184 % of control
